From PubChem BioAssay (NCI)
“And” between values parts separate entries of the source, which are not always exact repeats. Equal values may be shown once.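 Compound exposure: 48 hours, 5 concentrations, 96-well plates. The concentration for 50% growth inhibition is given as GI50. Definition used: TGI = concentration required for complete inhibition of growth.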

These molecules were tested on MCF7 breast (assay: NCI-60 cell line screen, 48 h).

Row | SMILES | GI50 [µM] | TGI [µM]
1 | COc1ccc(-c2nnc(COc3ccc(NC(=O)Nc4ccc(Cl)c(C(F)(F)F)c4)cc3F)o2)cc1 | 3.03 | 14.3
2 | NCCCn1c2c(c3ccc([N+](=O)[O-])cc3c1=O)C(=O)c1cc(Br)ccc1-2 | – | 0.0696
3 | CN1C(=O)c2ccccc2NC(=O)C12O[C@@H]2c1cccc(O)c1 (stereo partly specified) | – | > 100
4 | CSc1nc2cc(S(=O)(=O)N3CCCCC3)ccc2s1 | – | > 100
5 | CCCCN1CSC(=S)N(Cc2ccccc2)C1 | – | > 100
6 | CC(C)(C)c1ccc(O)c(CN(Cc2cc(C(C)(C)C)ccc2O)c2ccccc2)c1 | – | 38.9

These molecules were tested on HCT-15 colon (assay: NCI-60 cell line screen, 48 h).

Row | SMILES | TGI | GI50
7 | COc1ccc(/C(Cl)=C(\C=O)c2ccc([N+](=O)[O-])cc2)cc1 | > 70.3 µM | –
8 | COc1ccc(-n2cc(-c3cc(OC)c(OC)c(OC)c3)[nH]c2=O)cc1Cl | > 100 µM | > 100 µM
9 | Cc1ccc(-c2cc(=O)c3cc(C)c(C)c(C(=O)O)c3o2)cc1C | > 100 µM | –
10 | O=C(/C=C/c1c(O)ccc2ccccc12)c1ccccc1 | > 100 µM | –
11 | Cc1nc2ccccc2c(=O)n1-c1ccccc1F | > 100 µM | –
12 | C=C1CC[C@@H]2[C@](C)(COC(C)=O)[C@H](OC(C)=O)CC[C@@]2(C)[C@@H]1CC(Nc1ccc(S(=O)(=O)Nc2ncccn2)cc1)C1=CCOC1=O (stereo partly specified) | 3.33 µM | 1.21 µM
13 | CC1=N/C(=C\c2cccc([N+](=O)[O-])c2)C(=O)O1 | > 100 µM | –
14 | C=C1C(=O)O[C@H]2[C@H]1CC/C(COC(=O)c1cc3ccccc3s1)=C\CC[C@@]1(C)O[C@@H]21 | 1.79 µM | 0.4 µM
15 | CC(C)N1CN(C(C(=O)N[C@@H]2C(=O)N3C2SC(C)(C)C3C(=O)O)c2ccccc2)CSC1=S (stereo partly specified) | > 100 µM | –
16 | COc1cc2c3c(n(CCCCOC(=O)C(Cl)(Cl)Cl)c(=O)c2cc1OC)-c1cc2c(cc1C3=O)OCO2 | > 100 µM | > 100 µM
17 | CC(C)c1cc2c(O)c(c1)Cc1cc(C(C)C)cc(c1O)Cc1cc(C(C)C)cc(c1O)Cc1cc(C(C)C)cc(c1O)C2 | > 100 µM | –
18 | CCCCOC(=O)NC(=O)c1cn(C2CCCCC2)c(=O)[nH]c1=O | > 100 µM | –
19 | CC(C)CCCC(=O)CCCCCCC(=O)CCN(O)C(=O)C(N)CO (stereo unspecified) | 42.6 µM | –
20 | Cc1ccc(NC(=O)NCCCOc2ccc(N3C(N)=NC(N)=NC3(C)C)cc2Cl)cc1S(=O)(=O)F | > 100 µM | > 100 µM
21 | CC[CH2][Sn]([Cl])([Cl])[CH2]CC.Oc1ccccc1C=NCCN=Cc1ccccc1O | 24.8 µM | 9.63 µM
22 | COc1cc2c(c(OC)c1)C1(CC(CC#N)C2)SCCS1 (stereo unspecified) | > 100 µM | –
23 | CCOC(=O)CCn1[nH]c(=O)c(Cl)c(Cl)c1=O | > 100 µM | –

Row | SMILES | TGI | GI50
24 | COc1ccccc1Cn1cc2c(c1-c1ccccc1)CCc1cnoc1-2 | > 100 µM | 1.71 µM
25 | COc1ccc(CNc2nc3cc(C(F)(F)F)ccc3nc2C)cc1OC | > 100 µM | –
26 | C/C=C1/C(=C/c2[nH]c(/C=c3\[nH]/c(=C/C4=NC(=O)C(CC)=C4C)c(C)c3CCC(=O)O)c(CCC(=O)O)c2C)NC(=O)C1C (stereo unspecified) | > 150 µg/mL | > 150 µg/mL
27 | COc1cccc(/C=C2\C(=O)N(C(=O)c3ccc(NC(C)=O)cc3)N=C2C)c1 | > 100 µM | –
28 | C/C=C(\C)CC/C=C/CO[Si](C)(C)C(C)(C)C | > 100 µM | –
29 | N#CCc1ccc(C(C#N)/C(CCCC(=O)Nc2cccc([N+](=O)[O-])c2)=N/NC(N)=S)cc1 (stereo unspecified) | > 100 µM | –
30 | CNc1nc(N)c(N=O)c(Nc2ccc(Br)cc2)n1 | > 100 µM | –
31 | COc1ccc(-c2nnc(COc3ccc(NC(=O)Nc4ccc(Cl)c(C(F)(F)F)c4)cc3F)o2)cc1 | 33 µM | 2.74 µM
32 | NCCCn1c2c(c3ccc([N+](=O)[O-])cc3c1=O)C(=O)c1cc(Br)ccc1-2 | 0.155 µM and 0.0641 µM | 0.035 µM
33 | CC(C)c1ccc(C(c2ccc(OCC(=O)O)cc2)c2ccc(C(C)C)cc(=O)c2O)c(O)c(=O)c1 | 22.9 µM | –
34 | CN1C(=O)c2ccccc2NC(=O)C12O[C@@H]2c1cccc(O)c1 (stereo partly specified) | > 100 µM | –
35 | N#C/C(=C\c1cc2ccccc2c2ccccc12)c1ccccc1 | 39.4 µM | –
36 | CCOc1ccc2c(c1)[n+]([O-])c(-c1nc3ccccc3s1)c(N)[n+]2[O-] | > 100 µM | –
37 | COc1ccc2c3c(coc13)C(CCC(=O)O)CC2 (stereo unspecified) | > 100 µM | –
38 | CSc1nc2cc(S(=O)(=O)N3CCCCC3)ccc2s1 | > 100 µM | –
39 | COc1ncc(-c2ccc3ncnc(Nc4cccc(Cl)c4)c3c2)cc1NS(=O)(=O)CCN1CCOCC1 | > 100 µM | 0.448 µM
